We go through 1 molecule from paper PMC6044923 (ACS Omega, 2017).

The IC50 is the point on the concentration scale where inhibition reaches its midpoint.

This experiment addresses amyloid-β (Aβ(1–42)) (Homo sapiens, UniProt P05067). The experiment can be described thus: SPR aggregation assay. The class given is biochemical.

Sequence of amyloid-β (Aβ(1–42)) (P05067 672-713): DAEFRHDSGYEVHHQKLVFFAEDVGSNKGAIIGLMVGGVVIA

`C[n+]1ccc(-c2c3nc(c(-c4cc[n+](C)cc4)c4ccc([nH]4)c(-c4cc[n+](C)cc4)c4nc(c(-c5cc[n+](C)cc5)c5ccc2[nH]5)C=C4)C=C3)cc1` [TMPyP, 5,10,15,20-tetrakis(N-methyl-4-pyridyl)porphyrin] registered an IC50 of 430 nM.
